Measured values as given in patent US6495571B1, “Pyridine compounds, use and preparation thereof” (Southern Research Institute, priority 1999, dated 2002).
Marks after values point to notes of the source that are not given here.

Experiments:
[1] = test system: human MX-1 mammary tumor (ic, 10^6 cells); experiment: In vivo antitumor activity, i.c.-implanted MX-1 xenograft; settings: for Median % ILS (dying mice only) / Tumor-Free-Surv/Total: Days 1-5; for activity against i.c.-implanted tumor (in words): in comparison to PEN and DM-PEN; for Median % ILS (based on dying mice only) / Survivors: optimal doses (LD10 or less), schedule QD1-5, administered LP.
[2] = test system: human MX-1 mammary tumor (sc, 30-40 mg fragments); experiment: In vivo antitumor activity, s.c.-implanted MX-1 xenograft; design: species or system Athymic mice (Ncr-nu); settings: for antitumor activity (in words): MX-1 implanted s.c. or i.c.; for IP dosage marked (LD50): Days 12-16, sc MX-1 bearing mice
[3] = oral (gavage) 135 mg/kg/dose, Days 13-17
[4] = oral (gavage) 135 mg/kg/dose, Days 12-16

COc1nc(C(Cl)(Cl)Cl)c(Cl)c(OC(=O)COC(C)=O)c1Cl [DM-AA-PEN]
Median % ILS (dying mice only) ([1]; IP 135 mg/kg/dose): +67%
Tumor-Free-Surv/Total ([1]; IP 135 mg/kg/dose): 0/5
Median % ILS (dying mice only) ([1]; oral (gavage) 135 mg/kg/dose): +115%
Tumor-Free-Surv/Total ([1]; oral (gavage) 135 mg/kg/dose): 2/5

C=CC(=O)Oc1c(Cl)c(OC)nc(C(Cl)(Cl)Cl)c1Cl [DM-AC-PEN]
T-C ([2]; IP 60 mg/kg/dose, Days 12-16): 30.0 days
Tumor-Free-Surv/Total ([2]; IP 60 mg/kg/dose, Days 12-16): 1/5
Median % ILS (dying mice only) ([1]; IP 60 mg/kg/dose): +55%
Tumor-Free-Surv/Total ([1]; IP 60 mg/kg/dose): 0/5

COc1nc(C(Cl)(Cl)Cl)c(Cl)c(OC(=O)c2ccccc2)c1Cl [DM-B-PEN]
T-C ([2]; IP 135 mg/kg/dose, Days 11-15): >42.7 days
Tumor-Free-Surv/Total ([2]; IP 135 mg/kg/dose, Days 11-15): 5/5
antitumor activity (in words) ([2]; i.p. administration): high activity
antitumor activity (in words) ([2]; oral drug treatment): low antitumor activity
oral absorption (in words) ([2]; inferred from MX-1 results (s.c. or i.c.), oral treatment): oral absorption was poor
T-C [2, 3]: -1.4 days
Tumor-Free-Surv/Total [2, 3]: 0/5
Median % ILS (dying mice only) ([1]; IP 335 mg/kg/dose): +84%
Tumor-Free-Surv/Total ([1]; IP 335 mg/kg/dose): 0/5
Median % ILS (dying mice only) ([1]; oral (gavage) 135 mg/kg/dose): +12%
Tumor-Free-Surv/Total ([1]; oral (gavage) 135 mg/kg/dose): 0/5

COc1nc(C(Cl)(Cl)Cl)c(Cl)c(OC(=O)CBr)c1Cl [DM-BA-PEN]
T-C ([2]; IP 135 mg/kg/dose, Days 12-16): >41.0 days
Tumor-Free-Surv/Total ([2]; IP 135 mg/kg/dose, Days 12-16): 2/5

COc1nc(C(Cl)(Cl)Cl)c(Cl)c(OC(=O)CCl)c1Cl [DM-CA-PEN]
T-C ([2]; IP 60 mg/kg/dose, Days 12-16): >41.0 days
Tumor-Free-Surv/Total ([2]; IP 60 mg/kg/dose, Days 12-16): 3/5
T-C [2, 4]: >41.0 days
Tumor-Free-Surv/Total [2, 4]: 5/5
Median % ILS (dying mice only) ([1]; oral (gavage) 135 mg/kg/dose): +84%
Tumor-Free-Surv/Total ([1]; oral (gavage) 135 mg/kg/dose): 2/5

COc1nc(C(Cl)(Cl)Cl)c(Cl)c(OC(=O)c2ccc(CCl)cc2)c1Cl [DM-CMB-PEN]
Median % ILS (dying mice only) ([1]; IP 90 mg/kg/dose): +73%
Tumor-Free-Surv/Total ([1]; IP 90 mg/kg/dose): 0/5

COC(=O)CCC(=O)Oc1c(Cl)c(OC)nc(C(Cl)(Cl)Cl)c1Cl [DM-CMP-PEN]
T-C ([2]; IP 135 mg/kg/dose, Days 11-15): >42.7 days
Tumor-Free-Surv/Total ([2]; IP 135 mg/kg/dose, Days 11-15): 3/5
T-C [2, 3]: >38.5 days
Tumor-Free-Surv/Total [2, 3]: 2/5
Median % ILS (dying mice only) ([1]; IP 90 mg/kg/dose): +87%
Tumor-Free-Surv/Total ([1]; IP 90 mg/kg/dose): 1/5
Median % ILS (dying mice only) ([1]; oral (gavage) 90 mg/kg/dose): +76%
Tumor-Free-Surv/Total ([1]; oral (gavage) 90 mg/kg/dose): 1/5

COc1nc(C(Cl)(Cl)Cl)c(Cl)c(OC(=O)C(Cl)Cl)c1Cl [DM-DCA-PEN]
T-C ([2]; IP 135 mg/kg/dose, Days 12-16): >38.6 days
Tumor-Free-Surv/Total ([2]; IP 135 mg/kg/dose, Days 12-16): 2/5

COc1nc(C(Cl)(Cl)Cl)c(Cl)c(OC(=O)c2ccco2)c1Cl [DM-F-PEN]
T-C ([2]; IP 90 mg/kg/dose, Days 12-16): >41.2 days
Tumor-Free-Surv/Total ([2]; IP 90 mg/kg/dose, Days 12-16): 5/5
Median % ILS (dying mice only) ([1]; IP 135 mg/kg/dose): +108%
Tumor-Free-Surv/Total ([1]; IP 135 mg/kg/dose): 2/5
activity against i.c.-implanted tumor (in words) [1]: significant activity
Median % ILS (based on dying mice only) [1]: 108^c %
Survivors [1]: 2/5

COc1nc(C(Cl)(Cl)Cl)c(Cl)c(OC(=O)CI)c1Cl [DM-IA-PEN]
T-C ([2]; IP 60 mg/kg/dose, Days 12-16): 20.3 days
Tumor-Free-Surv/Total ([2]; IP 60 mg/kg/dose, Days 12-16): 1/5
IP dosage marked (LD50) [2]: 60 (LD50) mg/kg/dose

COc1nc(C(Cl)(Cl)Cl)c(Cl)c(OC(=O)c2ccncc2)c1Cl [DM-IN-PEN]
T-C ([2]; IP 90 mg/kg/dose, Days 12-16): >38.6 days
Tumor-Free-Surv/Total ([2]; IP 90 mg/kg/dose, Days 12-16): 3/5
IP dosage marked (LD50) [2]: 90 (LD50) mg/kg/dose

COCC(=O)Oc1c(Cl)c(OC)nc(C(Cl)(Cl)Cl)c1Cl [DM-MA-PEN]
T-C [2, 4]: >41.0 days
Tumor-Free-Surv/Total [2, 4]: 5/5
Median % ILS (dying mice only) ([1]; IP 90 mg/kg/dose): +125%
Tumor-Free-Surv/Total ([1]; IP 90 mg/kg/dose): 1/5
activity against i.c.-implanted tumor (in words) [1]: significant activity
Median % ILS (based on dying mice only) [1]: 126^a %
Survivors [1]: 1/5
Median % ILS (dying mice only) ([1]; oral (gavage) 90 mg/kg/dose): +110%
Tumor-Free-Surv/Total ([1]; oral (gavage) 90 mg/kg/dose): 1/5

COc1nc(C(Cl)(Cl)Cl)c(Cl)c(OC(=O)c2ccc([N+](=O)[O-])cc2)c1Cl [DM-NB-PEN]
T-C ([2]; IP 135 mg/kg/dose, Days 12-16): >38.6 days
Tumor-Free-Surv/Total ([2]; IP 135 mg/kg/dose, Days 12-16): 5/5

CCCCCCCC(=O)Oc1c(Cl)c(OC)nc(C(Cl)(Cl)Cl)c1Cl [DM-O-PEN]
Median % ILS (dying mice only) ([1]; IP 90 mg/kg/dose): +121%
Tumor-Free-Surv/Total ([1]; IP 90 mg/kg/dose): 0/5
activity against i.c.-implanted tumor (in words) [1]: significant activity
Median % ILS (based on dying mice only) [1]: 121^b %
Survivors [1]: 0/5

COc1nc(C(Cl)(Cl)Cl)c(Cl)c(OC(=O)c2c(Cl)cc(Cl)cc2Cl)c1Cl [DM-TCB-PEN]
Median % ILS (dying mice only) ([1]; IP 135 mg/kg/dose): +92%
Tumor-Free-Surv/Total ([1]; IP 135 mg/kg/dose): 1/5
